Measured values as given in PMC8686763, “Pre-Steady-State Kinetics of the SARS-CoV-2 Main Protease as a Powerful Tool for Antiviral Drug Discovery” (Frontiers in Pharmacology, 2021).
Like-named read-outs stand apart in the source and are kept apart here.

Assays:
[1] = target: SARS-CoV-2 M^pro (WT) (Severe acute respiratory syndrome coronavirus 2, UniProt P0DTD1); assay: biochemical; format: binding; settings: for ΔTm at 50 µM: read-out: ΔTm
[2] = target: WT M^pro (Severe acute respiratory syndrome coronavirus 2, UniProt P0DTD1); format: binding
[3] = 5 μM M^pro, 50 μM inhibitor, vs DMSO control

SMILES | Tm [1] [°C] | change of protein Tm upon binding (in words) [1] | ΔTm at 50 µM [1, 3] [°C] | K 2 (= k 2/k −2) [2] | k 2 [2] [s⁻¹] | k -2 [2] [s⁻¹] | k chem [2] [s⁻¹] | k 1 ([2]; 25 °C) | k -1 ([2]; 25 °C) [s⁻¹] | ΔTm at 50 µM [1] [°C] | Tm ([1]; 5 μM M^pro, 50 μM inhibitor, DMSO control 56.25) [°C]
CC(C)(C)NC(=O)N[C@H](C(=O)N1C[C@H]2[C@@H]([C@H]1C(=O)NC(CC1CCC1)C(=O)C(N)=O)C2(C)C)C(C)(C)C (stereo partly drawn) [Boceprevir] | 62.00 | caused changes of protein Tm | 5.75 |  |  |  |  |  |  |  | 
COc1cccc2[nH]c(C(=O)N[C@@H](CC(C)C)C(=O)N[C@@H](C[C@@H]3CCNC3=O)C(=O)CO)cc12 [PF-00835231] | 70.25 | caused changes of protein Tm |  | 0.37 ± 0.07 | 0.90 ± 0.18 | 2.4 ± 0.1 | 0.17 ± 0.07 | (0.35 ± 0.09)×10^6 M^−1×s^−1 | 12.4 ± 0.6 | ~14 | 
CCC[C@H](NC(=O)[C@@H]1[C@H]2CCC[C@H]2CN1C(=O)[C@@H](NC(=O)[C@@H](NC(=O)c1cnccn1)C1CCCCC1)C(C)(C)C)C(=O)C(=O)NC1CC1 [Telaprevir] |  | did not result in Tm changes | 0 |  |  |  |  |  |  |  | 56.25
